# Data as given in article PMC4476799, “Englerin A Agonizes the TRPC4/C5 Cation Channels to Inhibit Tumor Cell Line Proliferation” (PLoS ONE, 2015).
# Where two headings read alike, the source gives them in different places.
# Tested on: cancer cell lines from the cancer cell line encyclopedia (CCLE)
# Assay: Cell line profiling (CLiP) proliferation experiment
# Type: cell-based
# Design: key to Compound Activity (1-inactive;2-active): 1-inactive; 2-active; ACTIVITY_AREA: scale not given here; AMAX: unit not given here
# Settings: for IC50: read-out: Crossing Point; for EC50: read-out: Inflection Point
# Description: Compound profiling experiment and data analysis was performed as previously described. Data was imported and plotted using the Tibco Spotfire DXP application. Lines were categorized as sensitive, intermediate and refractory as follows: Amax<-40 & Inflection Point <2 ~ Sensitive, Amax>-20 & Inflection Point >10 ~ Refractory, all else were called Intermediate. Cancer Cell line HG-U133 Plus 2 data was processed and normalized as described. […] Five sets of refractory cell lines were generated from the pool of refractory cell lines trying to match the lineage composition of the set of sensitive cell lines. The limma package was used as previously described to perform the statistical comparison.
# [1] = UM-UC-3 cell line, urinary_tract, transitional_cell_carcinoma
# [2] = VM-CUB1 cell line, urinary_tract, transitional_cell_carcinoma
# [3] = VMRC-RCW cell line, kidney, renal_cell_carcinoma
# [4] = VMRC-RCZ cell line, kidney, renal_cell_carcinoma
# [5] = WSU-DLCL2 cell line, haematopoietic_and_lymphoid_tissue, diffuse_large_B_cell_lymphoma
# [6] = YKG1 cell line, central_nervous_system, astrocytoma_Grade_IV
# [7] = Z-138 cell line, haematopoietic_and_lymphoid_tissue, mantle_cell_lymphoma
# [8] = ZR-75-1 cell line, breast, ductal_carcinoma
# [9] = cell line 8-MG-BA, central_nervous_system, astrocytoma_Grade_IV
# [10] = cell line 697, haematopoietic_and_lymphoid_tissue, acute_lymphoblastic_leukaemia
# [11] = cell line 769-P, kidney, clear_cell_renal_cell_carcinoma
# [12] = cell line 786-O, kidney, clear_cell_renal_cell_carcinoma
# [13] = cell line 8305C, thyroid, anaplastic_carcinoma
# [14] = cell line 23132/87, stomach, adenocarcinoma
# [15] = cell line A4/Fuk, haematopoietic_and_lymphoid_tissue, diffuse_large_B_cell_lymphoma
# [16] = cell line A-204, soft_tissue, NS
# [17] = cell line BDCM, haematopoietic_and_lymphoid_tissue, acute_lymphoblastic_B_cell_leukaemia
# [18] = cell line BHY, upper_aerodigestive_tract, squamous_cell_carcinoma
# [19] = cell line BICR 6, upper_aerodigestive_tract, squamous_cell_carcinoma
# [20] = cell line BICR 22, upper_aerodigestive_tract, squamous_cell_carcinoma
# [21] = cell line CAL-29, urinary_tract, transitional_cell_carcinoma
# [22] = cell line DOHH-2, haematopoietic_and_lymphoid_tissue
# [23] = cell line EB1, haematopoietic_and_lymphoid_tissue
# [24] = cell line EB2, haematopoietic_and_lymphoid_tissue
# [25] = cell line EM-2 (haematopoietic_and_lymphoid_tissue, blast_phase_chronic_myeloid_leukaemia)
# [26] = cell line EM-2, haematopoietic_and_lymphoid_tissue
# [27] = cell line EOL-1, haematopoietic_and_lymphoid_tissue
# [28] = cell line FaDu, upper_aerodigestive_tract
structure (smiles),measurement,setting,value
CC(C)[C@@]12C[C@@H](O)[C@@](C)(O1)[C@@H]1CC[C@@H](C)[C@H]1[C@@H]2OC(=O)/C=C/c1ccccc1 [Englerin B],ACTIVITY_AREA,[1],37.41
same,AMAX,[1],-54.71
same,RESPONSE,[1],INTERMEDIATE
same,ACTIVITY_AREA,[2],96.55
same,AMAX,[2],-58.31
same,RESPONSE,[2],INTERMEDIATE
same,IC50,VMRC-RCW (kidney),> 30 µM
same,ACTIVITY_AREA,[3],10.22
same,AMAX,[3],-25.65
same,IC50,[3],> 30 µM
same,IC50,VMRC-RCZ (kidney),> 30 µM
same,ACTIVITY_AREA,[4],26.25
same,AMAX,[4],-46.92
same,RESPONSE,[4],INTERMEDIATE
same,IC50,[4],> 30 µM
same,IC50,"WM983B, WM-983B (skin)",> 30 µM
same,IC50,"WM983B, WM-983B cell line, skin, NS",> 30 µM
same,ACTIVITY_AREA,"WM1799 cell line, skin, NS",44.8
same,AMAX,"WM1799 cell line, skin, NS",-38.05
same,RESPONSE,"WM1799 cell line, skin, NS",INTERMEDIATE
same,IC50,WM-88 (skin),> 30 µM
same,ACTIVITY_AREA,"WM-88 cell line, skin, NS",55.16
same,AMAX,"WM-88 cell line, skin, NS",-34.98
same,RESPONSE,"WM-88 cell line, skin, NS",INTERMEDIATE
same,IC50,"WM-88 cell line, skin, NS",> 30 µM
same,ACTIVITY_AREA,"WM-115 cell line, skin, NS",73.29
same,AMAX,"WM-115 cell line, skin, NS",-15.29
same,RESPONSE,"WM-115 cell line, skin, NS",REFRACTORY
same,ACTIVITY_AREA,"WM-266-4 cell line, skin, NS",31.57
same,AMAX,"WM-266-4 cell line, skin, NS",-38.36
same,RESPONSE,"WM-266-4 cell line, skin, NS",INTERMEDIATE
same,ACTIVITY_AREA,"WM-793 cell line, skin, NS",26.94
same,AMAX,"WM-793 cell line, skin, NS",-46.79
same,RESPONSE,"WM-793 cell line, skin, NS",INTERMEDIATE
same,ACTIVITY_AREA,"WM-983B cell line, skin, NS",63.66
same,AMAX,"WM-983B cell line, skin, NS",-43.12
same,RESPONSE,"WM-983B cell line, skin, NS",INTERMEDIATE
same,IC50,"WM-1799, WM1799 (skin)",> 30 µM
same,IC50,"WM-1799, WM1799 cell line, skin, NS",> 30 µM
same,IC50,WS1 (skin),> 30 µM
same,IC50,"WS1, WS1 cell line, skin",> 30 µM
same,ACTIVITY_AREA,"WS1 cell line, skin",21.77
same,AMAX,"WS1 cell line, skin",-26.6
same,RESPONSE,"WS1 cell line, skin",INTERMEDIATE
same,ACTIVITY_AREA,[5],47.3
same,AMAX,[5],-92.11
same,RESPONSE,[5],INTERMEDIATE
same,ACTIVITY_AREA,"YAPC cell line, pancreas, NS",25.5
same,AMAX,"YAPC cell line, pancreas, NS",-44.67
same,RESPONSE,"YAPC cell line, pancreas, NS",INTERMEDIATE
same,ACTIVITY_AREA,[6],26.45
same,AMAX,[6],-20.02
same,RESPONSE,[6],INTERMEDIATE
same,ACTIVITY_AREA,"YMB-1 cell line, breast, NS",29.44
same,AMAX,"YMB-1 cell line, breast, NS",-63.02
same,RESPONSE,"YMB-1 cell line, breast, NS",INTERMEDIATE
same,IC50,"YMB-1 cell line, breast, NS",21 µM
same,EC50,"YMB-1 cell line, breast, NS",21 µM
same,ACTIVITY_AREA,[7],90.79
same,AMAX,[7],-65.74
same,RESPONSE,[7],INTERMEDIATE
same,ACTIVITY_AREA,[8],42.06
same,AMAX,[8],-53.16
same,Compound Activity (1-inactive;2-active),call per compound,1
same,Compound Activity (1-inactive;2-active),"call per compound, repeated on every line",1
same,Compound Activity (1-inactive;2-active),call printed on every cell-line row,1
same,ACTIVITY_AREA,[9],36.6
same,AMAX,[9],-52.73
same,RESPONSE,[9],INTERMEDIATE
same,ACTIVITY_AREA,"cell line 59M, ovary, NS",26.55
same,AMAX,"cell line 59M, ovary, NS",-38.54
same,RESPONSE,"cell line 59M, ovary, NS",INTERMEDIATE
same,IC50,"cell line 59M, ovary, NS",> 30 µM
same,IC50,cell line 59M,> 30 µM
same,IC50,[10],18.6 µM
same,EC50,[10],18.6 µM
same,ACTIVITY_AREA,[11],13.6
same,AMAX,[11],-49.16
same,RESPONSE,[11],INTERMEDIATE
same,ACTIVITY_AREA,[12],46.1
same,AMAX,[12],-38.05
same,RESPONSE,[12],INTERMEDIATE
same,Compound Activity (1-inactive;2-active),"cell line 1321N1 (central_nervous_system, astrocytoma)",1
same,ACTIVITY_AREA,[13],19.13
same,AMAX,[13],-42.05
same,RESPONSE,[13],INTERMEDIATE
same,ACTIVITY_AREA,[14],152.84
same,AMAX,[14],-72.44
same,RESPONSE,[14],INTERMEDIATE
same,IC50,[14],15.3 µM
same,EC50,[14],15.3 µM
same,IC50,[15],18.1 µM
same,EC50,[15],18.1 µM
same,ACTIVITY_AREA,[16],22.22
same,AMAX,[16],-45.81
same,RESPONSE,[16],INTERMEDIATE
same,IC50,"cell line AGS, stomach, adenocarcinoma",5.71 µM
same,IC50,[17],16.9 µM
same,EC50,[17],16.9 µM
same,IC50,[18],23.5 µM
same,EC50,[18],9.33 µM
same,IC50,[19],23 µM
same,EC50,[19],23 µM
same,IC50,"cell line BICR 16, upper_aerodigestive_tract, squamous_cell_carcinoma",9.26 µM
same,IC50,[20],18.8 µM
same,EC50,[20],15 µM
same,IC50,"cell line C32, skin, NS",> 30 µM
same,IC50,[21],15.9 µM
same,EC50,[21],13.1 µM
same,Compound Activity (1-inactive;2-active),"cell line COLO-800 (skin, NS)",1
same,Compound Activity (1-inactive;2-active),"cell line COV504 (ovary, NS)",1
same,Compound Activity (1-inactive;2-active),"cell line Caov-3 (ovary, adenocarcinoma)",1
same,Compound Activity (1-inactive;2-active),"cell line DBTRG-05MG (central_nervous_system, astrocytoma_Grade_IV)",1
same,Compound Activity (1-inactive;2-active),"cell line DLD-1 (large_intestine, adenocarcinoma)",1
same,ACTIVITY_AREA,"cell line DMS 79, lung",49.26
same,AMAX,"cell line DMS 79, lung",-10.4
same,RESPONSE,"cell line DMS 79, lung",REFRACTORY
same,ACTIVITY_AREA,[22],33.67
same,AMAX,[22],-98.82
same,RESPONSE,[22],INTERMEDIATE
same,Compound Activity (1-inactive;2-active),"cell line DU 145 (prostate, NS)",1
same,ACTIVITY_AREA,"cell line DU 145, prostate",176.13
same,AMAX,"cell line DU 145, prostate",-54.93
same,RESPONSE,"cell line DU 145, prostate",INTERMEDIATE
same,Compound Activity (1-inactive;2-active),"cell line DV-90 (lung, adenocarcinoma)",1
same,ACTIVITY_AREA,"cell line DV-90, lung",23.59
same,AMAX,"cell line DV-90, lung",-71.93
same,RESPONSE,"cell line DV-90, lung",INTERMEDIATE
same,ACTIVITY_AREA,[23],13.39
same,AMAX,[23],-56.14
same,RESPONSE,[23],INTERMEDIATE
same,IC50,[23],28.7 µM
same,ACTIVITY_AREA,[24],28.45
same,AMAX,[24],-57.08
same,RESPONSE,[24],INTERMEDIATE
same,IC50,[24],25.8 µM
same,ACTIVITY_AREA,"cell line EBC-1, lung",56.14
same,AMAX,"cell line EBC-1, lung",-53.25
same,RESPONSE,"cell line EBC-1, lung",INTERMEDIATE
same,Compound Activity (1-inactive;2-active),"cell line EFM-19 (breast, ductal_carcinoma)",1
same,ACTIVITY_AREA,"cell line EFM-19, breast",28.98
same,AMAX,"cell line EFM-19, breast",-31.96
same,RESPONSE,"cell line EFM-19, breast",INTERMEDIATE
same,ACTIVITY_AREA,"cell line EFM-192A, breast",78.14
same,AMAX,"cell line EFM-192A, breast",-57.28
same,RESPONSE,"cell line EFM-192A, breast",INTERMEDIATE
same,Compound Activity (1-inactive;2-active),[25],1
same,IC50,[25],> 30 µM
same,ACTIVITY_AREA,[26],14.33
same,AMAX,[26],-44.27
same,RESPONSE,[26],INTERMEDIATE
same,IC50,[26],> 30 µM
same,ACTIVITY_AREA,"cell line EN, endometrium",5.5
same,AMAX,"cell line EN, endometrium",-23.22
same,RESPONSE,"cell line EN, endometrium",INTERMEDIATE
same,IC50,"cell line EN, endometrium",> 30 µM
same,IC50,cell line EN,> 30 µM
same,ACTIVITY_AREA,[27],60.59
same,AMAX,[27],-94.78
same,RESPONSE,[27],INTERMEDIATE
same,ACTIVITY_AREA,"cell line ES-2, ovary",44.96
same,AMAX,"cell line ES-2, ovary",-44.71
same,RESPONSE,"cell line ES-2, ovary",INTERMEDIATE
same,IC50,"cell line ES-2, ovary",> 30 µM
same,IC50,cell line ES-2,> 30 µM
same,ACTIVITY_AREA,"cell line ESS-1, endometrium",41.09
same,AMAX,"cell line ESS-1, endometrium",-72.67
same,RESPONSE,"cell line ESS-1, endometrium",INTERMEDIATE
same,ACTIVITY_AREA,"cell line FU-OV-1, ovary",158.99
same,AMAX,"cell line FU-OV-1, ovary",-69.93
same,RESPONSE,"cell line FU-OV-1, ovary",INTERMEDIATE
same,IC50,"cell line FU-OV-1, ovary",3.19 µM
same,ACTIVITY_AREA,[28],21.14
same,AMAX,[28],-61.31
same,RESPONSE,[28],INTERMEDIATE
same,ACTIVITY_AREA,"cell line G-361, skin",55.99
same,AMAX,"cell line G-361, skin",-32.98
same,RESPONSE,"cell line G-361, skin",INTERMEDIATE
same,ACTIVITY_AREA,"cell line G-401, soft_tissue",47.08
same,AMAX,"cell line G-401, soft_tissue",-74.97
same,RESPONSE,"cell line G-401, soft_tissue",INTERMEDIATE
same,ACTIVITY_AREA,"cell line G-402, soft_tissue",90.01
same,AMAX,"cell line G-402, soft_tissue",-70.25
same,RESPONSE,"cell line G-402, soft_tissue",INTERMEDIATE
